Measurements from US4720489A, “Hair growth modification with ornithine decarboxylase inhibitors” (priority 1984, dated 1988).

Assays:
[1] = test system: androgen-mediated hair growth in male hamsters (flank organ hair mass); experiment: inhibition of androgen-mediated hair growth in male hamsters following topical application for 21 consecutive days (flank organ hair mass); type: in vivo, hamster; conditions: 500 micrograms in 10 microliters 70% ethanol, regrowth during final ten days
Experimental: Five hundred micrograms of the compound in ten microliters of 70% ethanol was applied topically for 21 consecutive days. Hair mass changes were determined by comparing the regrowth of hair during the final ten days of treatment. […] Furthermore, the magnitude of hair mass inhibition in the hamsters treated with the ODC inhibitor (60%) approached that observed in 21-day castrated hamsters (78%).

[2] = test system: ornithine decarboxylase (ODC), flank organ; experiment: flank organ ODC activity after topical application for 21 consecutive days; type: in vivo, hamster; conditions: 500 micrograms in 10 microliters 70% ethanol, versus hamsters castrated for 21 days
[3] = test system: flank organ hair mass in adult intact male hamsters; experiment: efficacy of topical compositions in reducing flank organ hair mass in adult intact male hamsters (Tables I and II); type: in vivo, hamster; conditions: 15 days (Mon-Fri) in 21-day interval, versus vehicle controls
Experimental: Summarized below in Tables I and II are the results of two experiments comparing the efficacy of several compositions in reducing the flank organ hair mass in adult intact male hamsters. In each case, hamsters were treated for 15 days (Monday-Friday) during a 21-day interval. Flank organ hairs were epilated on the first day of treatment and re-epilated on the sixth day of treatment. […] The results for percent inhibition shown below are based upon comparisons between the hair mass values of hairs harvested from treated flank organs of experimental animals and those obtained from vehicle-treated control animals.

[4] = test system: Flank Organ Hair Mass; experiment: similar series of experiments comparing a variety of compositions, flank organ hair mass (Table III); type: in vivo, hamster; design: Flank Organ Hair Mass, Untreated / Flank Organ Hair Mass, Treated: unit not given here
Experimental: Additional experiments were conducted to test topical regimens composed of a combination of 2(difluoromethyl)-2,5-diaminopentanoic acid along with antiandrogens. […] In each case, hamsters were treated for 15 days (Monday-Friday) during a 21-day interval. Flank organ hairs were epilated on the first day of treatment and re-epilated on the sixth day of treatment. The mass of flank organ hair represents the regrowth during the final 14 days of the 21-day interval.

[5] = test system: brain 4-aminobutyric acid levels; conditions: transformation catalyzed by mitochondrial monoamine oxidase; known secondary pharmacological effect; cited from earlier work
[6] = Table II, 500 micrograms per square centimeter
[7] = 5 micrograms per square centimeter
[8] = 50 micrograms per square centimeter
[9] = 250 micrograms per square centimeter
[10] = 500 micrograms per square centimeter

NCCCC(N)(C(=O)O)C(F)F (stereo not shown) [2(difluoromethyl)-2,5-diaminopentanoic acid]
magnitude of hair mass inhibition [1]: 60% | flank organ ODC activity [2]: reduced to levels found in hamsters castrated for 21 days | % Inhibition (flank organ hair mass) ([3]; Table I, 500 micrograms per square centimeter): 46% | % Inhibition (flank organ hair mass) [3, 6]: 41% | % Inhibition (flank organ hair mass) [4, 7]: 2% | % Inhibition (flank organ hair mass) [4, 8]: 7% | % Inhibition (flank organ hair mass) [4, 9]: 24% | % Inhibition (flank organ hair mass) [4, 10]: 33% | Flank Organ Hair Mass, Treated [4, 7]: 3.20 | Flank Organ Hair Mass, Treated [4, 8]: 2.85 | Flank Organ Hair Mass, Treated [4, 9]: 2.29 | Flank Organ Hair Mass, Treated [4, 10]: 1.81 | Flank Organ Hair Mass, Untreated ([4]; treatment group 5 micrograms per square centimeter): 3.26 | Flank Organ Hair Mass, Untreated ([4]; treatment group 50 micrograms per square centimeter): 3.05 | Flank Organ Hair Mass, Untreated ([4]; treatment group 250 micrograms per square centimeter): 3.00 | Flank Organ Hair Mass, Untreated ([4]; treatment group 500 micrograms per square centimeter): 2.71

C#CC(N)CCCN (stereo not shown) [5-hexyne-1,4-diamine]
brain 4-aminobutyric acid levels [5]: increases in brain 4-aminobutyric acid levels

CC(=O)O[C@]1(C(C)=O)CC[C@H]2[C@@H]3C=C(Cl)C4=CC(=O)CC[C@]4(C)[C@H]3CC[C@@]21C [Chloromadinone acetate, chlormadinone acetate]
% Inhibition (flank organ hair mass) [3, 6]: 41%

CC(=O)[C@H]1CC[C@H]2[C@@H]3CCC4=CC(=O)CC[C@]4(C)[C@H]3CC[C@]12C [Progesterone, progesterone]
% Inhibition (flank organ hair mass) ([3]; Table I, 1000 micrograms per square centimeter): 50%
